pIC50: −log10 of the molar value.
Columns and labels:
Human plasma DPP-IV = target: T1, Human plasma DPP-IV (Homo sapiens, UniProt P27487); assay: Plasma DPP-IV inhibitory activity (fluorescence assay, Gly-Pro-MCA substrate), human plasma; format: biochemical; details: human plasma (10-fold diluted), room temperature, 60 min
T1 construct: Human plasma DPP-IV; from tissue; host or cells: human plasma
Protocol: (§1) (Plasma DPP-IV Inhibitory Activity)
(§2) The plasma DPP-IV inhibitory activity of human and rat was measured by the fluorescence assay method. Using Gly-Pro-MCA (Peptide Institute Inc.) as a DPP-IV specific fluorescent substrate, reaction solutions having the following compositions and containing test substances having various concentrations were incubated at room temperature for 60 min and the measured (SPECTRA FLUOR, TECAN) fluorescent intensity (Excitation 360 nm/Emission 465 nm) was taken as the DPP-IV activity.
(§3) As a buffer, 0.003% Brij-35-containing phosphate buffer (PBS, Sigma-Aldrich Co.) was used.
(§4) A reaction solution free of the test substance was used as a control.
(§5) The inhibitory rate of the test substance relative to the reaction of the control was calculated, and IC50 values were determined by logistic analysis. The IC50 values of the plasma DPP-IV inhibitory activity of the present invention as determined by the above method are shown in the following table.

Rat plasma DPP-IV = target: T2, Rat plasma DPP-IV (Rattus norvegicus, UniProt P14740); assay: Plasma DPP-IV inhibitory activity (fluorescence assay, Gly-Pro-MCA substrate), rat plasma; format: biochemical; details: rat plasma (10-fold diluted), room temperature, 60 min
T2 construct: Rat plasma DPP-IV; from tissue; host or cells: rat plasma
T2 sequence (P14740 38-767 limits assumed): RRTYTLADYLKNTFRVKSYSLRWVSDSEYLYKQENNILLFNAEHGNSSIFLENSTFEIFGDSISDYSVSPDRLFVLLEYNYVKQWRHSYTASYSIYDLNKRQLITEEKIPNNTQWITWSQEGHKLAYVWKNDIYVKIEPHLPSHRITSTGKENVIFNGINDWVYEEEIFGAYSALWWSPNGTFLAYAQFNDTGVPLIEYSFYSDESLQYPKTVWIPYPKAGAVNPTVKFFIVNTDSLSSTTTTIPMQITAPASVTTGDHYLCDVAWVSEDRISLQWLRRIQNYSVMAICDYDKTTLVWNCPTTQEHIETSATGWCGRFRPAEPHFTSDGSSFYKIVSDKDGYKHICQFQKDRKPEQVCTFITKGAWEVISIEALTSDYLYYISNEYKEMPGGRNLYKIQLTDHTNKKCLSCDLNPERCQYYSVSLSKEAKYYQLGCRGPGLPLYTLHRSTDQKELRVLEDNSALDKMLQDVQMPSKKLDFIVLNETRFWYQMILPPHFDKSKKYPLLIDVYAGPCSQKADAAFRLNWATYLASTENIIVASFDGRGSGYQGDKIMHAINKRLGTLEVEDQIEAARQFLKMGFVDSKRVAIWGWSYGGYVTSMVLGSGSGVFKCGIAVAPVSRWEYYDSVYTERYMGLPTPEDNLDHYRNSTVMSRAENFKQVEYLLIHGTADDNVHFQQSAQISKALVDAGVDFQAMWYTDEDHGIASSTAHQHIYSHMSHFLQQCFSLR
Protocol: as §1, §2, §3, §4, §5

T1 sequence (P27487 39-766 limits assumed): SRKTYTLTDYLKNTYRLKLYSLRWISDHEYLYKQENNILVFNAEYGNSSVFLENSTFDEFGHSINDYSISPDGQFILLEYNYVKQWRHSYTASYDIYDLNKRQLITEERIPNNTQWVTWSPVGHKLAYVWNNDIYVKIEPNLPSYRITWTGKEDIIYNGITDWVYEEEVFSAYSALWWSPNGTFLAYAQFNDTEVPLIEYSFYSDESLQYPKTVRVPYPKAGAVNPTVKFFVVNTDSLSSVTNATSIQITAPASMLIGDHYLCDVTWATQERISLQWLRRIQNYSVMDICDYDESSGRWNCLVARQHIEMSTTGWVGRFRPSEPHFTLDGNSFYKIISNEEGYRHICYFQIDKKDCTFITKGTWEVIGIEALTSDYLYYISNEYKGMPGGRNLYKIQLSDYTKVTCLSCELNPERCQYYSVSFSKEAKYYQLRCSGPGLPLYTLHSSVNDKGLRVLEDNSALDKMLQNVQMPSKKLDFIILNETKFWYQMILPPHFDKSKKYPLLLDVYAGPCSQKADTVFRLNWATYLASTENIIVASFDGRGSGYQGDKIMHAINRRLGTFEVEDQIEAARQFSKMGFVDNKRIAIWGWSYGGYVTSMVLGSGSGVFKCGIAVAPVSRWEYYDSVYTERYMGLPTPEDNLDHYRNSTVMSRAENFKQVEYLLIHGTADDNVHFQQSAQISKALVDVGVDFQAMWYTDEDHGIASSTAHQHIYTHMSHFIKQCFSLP

| pIC50 (Human plasma DPP-IV) | pIC50 (Rat plasma DPP-IV) | Structure (SMILES) |
| --- | --- | --- |
| 8.80 | 8.85 | N#Cc1ccc(N2CCN([C@H]3CC[C@@H]([C@H](N)C(=O)N4CCSC4)CC3)CC2)nc1 [Example 2, 3-((S)-2-amino-2-{cis-4-[4-(5-cyano-2-pyridyl)-1-piperazinyl]-1-cyclohexyl}acetyl)-1,3-thiazolidine] |
| 8.68 | 8.85 | N[C@H](C(=O)N1CCSC1)[C@H]1CC[C@@H](N2CCN(c3nc4ccccc4s3)CC2)CC1 [Example 14, 3-((S)-2-amino-2-{cis-4-[4-(2-benzothiazolyl)-1-piperazinyl]-1-cyclohexyl}acetyl)-1,3-thiazolidine] |

From US7504423B2, “α-amino acid derivatives and use thereof as medicines” (Mitsubishi Tanabe Pharma Corporation, priority 2003, dated 2009)
